The values below come from the supplement of paper PMC10307832.

One test has as its system NCI-H1395. The test can be described thus: relative viability (nuclei count vs DMSO), 5 days (fraction); higher = more cells survive. As to conditions: first compound 0.2 µM. The procedure, abridged:
(§1)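 Medians of duplicate plates are given as relative viability. That measure is the nuclei count in treated wells divided by the count in vehicle wells. Counts were taken on 4× images of lung cancer cell lines in 1536-well plates, 5 days after pin-tool dosing the day after seeding with one drug alone or a fixed anchor-drug dose plus five library-drug doses (not always all listed) in √10 steps.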
Compound `COCC1(CO)C(=O)C2CCN1CC2` (stereo not given) [PRIMA-1MET] + Cc1cc(Nc2cc(N3CCN(C)CC3)nc(Sc3ccc(NC(=O)C4CC4)cc3)n2)n[nH]1 [Tozasertib] (partner 0.1 µM) displayed a relative viability of 0.823.
Compound `COCC1(CO)C(=O)C2CCN1CC2` (stereo not given) [PRIMA-1MET] + COc1cccc2cc(-c3nc([C@H]4CC[C@H](C(=O)O)CC4)n4ncnc(N)c34)[nH]c12 [OSI-027] (partner 0.5 µM) displayed a relative viability of 0.605.

The same test, now with this note: first compound 0.6325 µM.
For `COCC1(CO)C(=O)C2CCN1CC2` (stereo not given) [PRIMA-1MET] + CS(=O)(=O)CCNCc1ccc(-c2ccc3ncnc(Nc4ccc(OCc5cccc(F)c5)c(Cl)c4)c3c2)o1 [Lapatinib] (partner 2 µM), the relative viability was 0.701.
On the same count and under the same terms, the figure for `COCC1(CO)C(=O)C2CCN1CC2` (stereo not given) [PRIMA-1MET] + Cc1cc(Nc2cc(N3CCN(C)CC3)nc(Sc3ccc(NC(=O)C4CC4)cc3)n2)n[nH]1 [Tozasertib] (partner 0.1 µM) is 0.556; for `COCC1(CO)C(=O)C2CCN1CC2` (stereo not given) [PRIMA-1MET] + COc1cccc2cc(-c3nc([C@H]4CC[C@H](C(=O)O)CC4)n4ncnc(N)c34)[nH]c12 [OSI-027] (partner 0.5 µM) it is 0.492.

Still in this test, the particulars now being: first compound 2 µM.
Regarding `COCC1(CO)C(=O)C2CCN1CC2` (stereo not given) [PRIMA-1MET] + CS(=O)(=O)CCNCc1ccc(-c2ccc3ncnc(Nc4ccc(OCc5cccc(F)c5)c(Cl)c4)c3c2)o1 [Lapatinib] (partner 2 µM), the relative viability is 1.09.
Take `COCC1(CO)C(=O)C2CCN1CC2` (stereo not given) [PRIMA-1MET] + O=C(CCCCCCC(=O)Nc1ccccc1)NO [Vorinostat] (partner 1 µM): the relative viability came to 0.534.
In turn, `COCC1(CO)C(=O)C2CCN1CC2` (stereo not given) [PRIMA-1MET] + Cc1cc(Nc2cc(N3CCN(C)CC3)nc(Sc3ccc(NC(=O)C4CC4)cc3)n2)n[nH]1 [Tozasertib] (partner 0.1 µM) yielded a relative viability of 0.768.
Same read-out and setting: next, `COCC1(CO)C(=O)C2CCN1CC2` (stereo not given) [PRIMA-1MET] + COc1cccc2cc(-c3nc([C@H]4CC[C@H](C(=O)O)CC4)n4ncnc(N)c34)[nH]c12 [OSI-027] (partner 0.5 µM): 0.647.

Staying with this test, now noted: first compound 6.325 µM.
As for `COCC1(CO)C(=O)C2CCN1CC2` (stereo not given) [PRIMA-1MET] + CS(=O)(=O)CCNCc1ccc(-c2ccc3ncnc(Nc4ccc(OCc5cccc(F)c5)c(Cl)c4)c3c2)o1 [Lapatinib] (partner 2 µM), the relative viability was 0.89.
On the same count and under the same terms, next, `COCC1(CO)C(=O)C2CCN1CC2` (stereo not given) [PRIMA-1MET] + O=C(CCCCCCC(=O)Nc1ccccc1)NO [Vorinostat] (partner 1 µM): 0.762.
Compound `COCC1(CO)C(=O)C2CCN1CC2` (stereo not given) [PRIMA-1MET] + Cc1cc(Nc2cc(N3CCN(C)CC3)nc(Sc3ccc(NC(=O)C4CC4)cc3)n2)n[nH]1 [Tozasertib] (partner 0.1 µM) had a relative viability of 0.885.
On the same count and under the same terms, next, `COCC1(CO)C(=O)C2CCN1CC2` (stereo not given) [PRIMA-1MET] + COc1cccc2cc(-c3nc([C@H]4CC[C@H](C(=O)O)CC4)n4ncnc(N)c34)[nH]c12 [OSI-027] (partner 0.5 µM): 0.659.

Staying with this test, now noted: first compound 20 µM.
As to `COCC1(CO)C(=O)C2CCN1CC2` (stereo not given) [PRIMA-1MET] + CS(=O)(=O)CCNCc1ccc(-c2ccc3ncnc(Nc4ccc(OCc5cccc(F)c5)c(Cl)c4)c3c2)o1 [Lapatinib] (partner 2 µM), the relative viability was 0.908.
`COCC1(CO)C(=O)C2CCN1CC2` (stereo not given) [PRIMA-1MET] + O=C(CCCCCCC(=O)Nc1ccccc1)NO [Vorinostat] (partner 1 µM) showed a relative viability of 0.26.
Still for that read-out and setting: next, `COCC1(CO)C(=O)C2CCN1CC2` (stereo not given) [PRIMA-1MET] + Cc1cc(Nc2cc(N3CCN(C)CC3)nc(Sc3ccc(NC(=O)C4CC4)cc3)n2)n[nH]1 [Tozasertib] (partner 0.1 µM): 0.518; `COCC1(CO)C(=O)C2CCN1CC2` (stereo not given) [PRIMA-1MET] + COc1cccc2cc(-c3nc([C@H]4CC[C@H](C(=O)O)CC4)n4ncnc(N)c34)[nH]c12 [OSI-027] (partner 0.5 µM): 0.6.

For a further test, the system named is NCI-H1650. Described as above. As to conditions: first compound 0.2 µM. In outline:
as §1
`COCC1(CO)C(=O)C2CCN1CC2` (stereo not given) [PRIMA-1MET] + CS(=O)(=O)CCNCc1ccc(-c2ccc3ncnc(Nc4ccc(OCc5cccc(F)c5)c(Cl)c4)c3c2)o1 [Lapatinib] (partner 2 µM) gave a relative viability of 0.84.
Same read-out and setting: the figure for `COCC1(CO)C(=O)C2CCN1CC2` (stereo not given) [PRIMA-1MET] + O=C(CCCCCCC(=O)Nc1ccccc1)NO [Vorinostat] (partner 1 µM) is 0.619.
The same measure, in the same setting: next, `COCC1(CO)C(=O)C2CCN1CC2` (stereo not given) [PRIMA-1MET] + Cc1cc(Nc2cc(N3CCN(C)CC3)nc(Sc3ccc(NC(=O)C4CC4)cc3)n2)n[nH]1 [Tozasertib] (partner 0.1 µM): 0.516; `COCC1(CO)C(=O)C2CCN1CC2` (stereo not given) [PRIMA-1MET] + COc1cccc2cc(-c3nc([C@H]4CC[C@H](C(=O)O)CC4)n4ncnc(N)c34)[nH]c12 [OSI-027] (partner 0.5 µM): 0.742.

Staying with this test, now noted: first compound 0.6325 µM.
For the compound `COCC1(CO)C(=O)C2CCN1CC2` (stereo not given) [PRIMA-1MET] + CS(=O)(=O)CCNCc1ccc(-c2ccc3ncnc(Nc4ccc(OCc5cccc(F)c5)c(Cl)c4)c3c2)o1 [Lapatinib] (partner 2 µM), the relative viability turned out to be 0.378.
As for `COCC1(CO)C(=O)C2CCN1CC2` (stereo not given) [PRIMA-1MET] + O=C(CCCCCCC(=O)Nc1ccccc1)NO [Vorinostat] (partner 1 µM), the relative viability was 0.403.
On the same count and under the same terms, the figure for `COCC1(CO)C(=O)C2CCN1CC2` (stereo not given) [PRIMA-1MET] + Cc1cc(Nc2cc(N3CCN(C)CC3)nc(Sc3ccc(NC(=O)C4CC4)cc3)n2)n[nH]1 [Tozasertib] (partner 0.1 µM) is 0.377.
On the same count and under the same terms, next, `COCC1(CO)C(=O)C2CCN1CC2` (stereo not given) [PRIMA-1MET] + COc1cccc2cc(-c3nc([C@H]4CC[C@H](C(=O)O)CC4)n4ncnc(N)c34)[nH]c12 [OSI-027] (partner 0.5 µM): 0.664.
